By melting point is commonly meant the temperature, or range, at which the solid turns liquid. Usually Ki stands for the equilibrium dissociation constant of an inhibitor or competing ligand from its target.

For one data set, the target named is hCA I (Homo sapiens, UniProt P00915). The data set is described as follows: stopped-flow CA catalysed CO2 hydration assay, hCA I.
A further data set has as its target hCA II (Homo sapiens, UniProt P00918). The data set is described as follows: stopped-flow CA catalysed CO2 hydration assay, hCA II.
For a further data set, the target named is hCA IV (Homo sapiens, UniProt P22748). Briefly: stopped-flow CA catalysed CO2 hydration assay, hCA IV.
Chain of hCA IV (P22748 19-312): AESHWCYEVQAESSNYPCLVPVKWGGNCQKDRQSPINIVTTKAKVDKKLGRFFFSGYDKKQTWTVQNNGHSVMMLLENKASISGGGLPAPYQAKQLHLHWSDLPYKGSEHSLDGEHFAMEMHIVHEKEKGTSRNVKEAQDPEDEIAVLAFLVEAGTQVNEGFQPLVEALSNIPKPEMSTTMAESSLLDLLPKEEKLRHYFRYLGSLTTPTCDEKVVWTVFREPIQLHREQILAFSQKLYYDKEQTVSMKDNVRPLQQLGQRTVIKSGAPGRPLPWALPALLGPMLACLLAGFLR
In a further data set the target is hCA VII (Homo sapiens, UniProt P43166). Briefly: stopped-flow CA catalysed CO2 hydration assay, hCA VII.
Chain of hCA VII (P43166 whole entry): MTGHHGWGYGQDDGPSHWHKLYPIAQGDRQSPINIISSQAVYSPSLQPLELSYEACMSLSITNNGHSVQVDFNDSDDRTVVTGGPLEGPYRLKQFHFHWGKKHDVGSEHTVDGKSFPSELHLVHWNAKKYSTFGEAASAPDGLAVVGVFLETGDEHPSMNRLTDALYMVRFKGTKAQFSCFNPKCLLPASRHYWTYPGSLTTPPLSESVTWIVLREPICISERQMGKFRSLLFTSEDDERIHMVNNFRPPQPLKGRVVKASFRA
The mark [1] stands for this setting: read-out: hCA Ki (μM) hCA I, recombinant enzyme, stopped-flow CO2 hydration, 15 min preincubation, pH 8.3.
The mark [2] stands for this setting: read-out: hCA Ki (μM) hCA II, recombinant enzyme, stopped-flow CO2 hydration, 15 min preincubation, pH 8.3.
Setting [3] is: read-out: hCA Ki (μM) hCA IV, recombinant enzyme, stopped-flow CO2 hydration, 15 min preincubation, pH 8.3.
Where [4] appears, read: read-out: hCA Ki (μM) hCA VII, recombinant enzyme, stopped-flow CO2 hydration, 15 min preincubation, pH 8.3.
Where [5] appears, read: within the panel hCA I, II, IV, VII.

Molecules are shown by their SMILES. Read-outs that look alike come from different tables or passages of the source.

Chain of hCA I (P00915 whole entry): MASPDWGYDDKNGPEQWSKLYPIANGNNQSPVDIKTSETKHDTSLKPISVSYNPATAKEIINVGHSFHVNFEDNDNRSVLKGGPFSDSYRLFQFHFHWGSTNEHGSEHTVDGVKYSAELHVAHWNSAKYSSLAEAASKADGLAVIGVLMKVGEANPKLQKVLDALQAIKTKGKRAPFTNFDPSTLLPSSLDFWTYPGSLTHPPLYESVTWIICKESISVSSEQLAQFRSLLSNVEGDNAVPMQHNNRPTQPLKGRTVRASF
Procedure for hCA II: (§1) An applied photophysics stopped-flow instrument has been used for assaying the CA catalysed CO2 hydration activity[21]. […] The CO2 concentrations ranged from 1.7 to 17 mM for the determination of the kinetic parameters and inhibition constants. […] The uncatalysed rates were determined in the same manner and subtracted from the total observed rates. Stock solutions of inhibitor (0.1 mM) were prepared in distilled-deionized water and dilutions up to 0.005 nM were done thereafter with the assay buffer. Inhibitor and enzyme solutions were preincubated together for 15 min at room temperature prior to assay, in order to allow for the formation of the E–I complex. The inhibition constants were obtained by non-linear least-squares methods using PRISM 3 and the Cheng–Prusoff equation, as reported earlier, and represent the mean from at least three different determinations. All CA isoforms were recombinant ones obtained in-house[22–25].
Procedure for hCA IV: as §1
Procedure for hCA VII: as §1

`Cc1nn(-c2ccccc2Cl)c(C)c1S(N)(=O)=O` [Compound 8i, 1-(2-Chlorophenyl)-3,5-dimethyl-^1H-pyrazole-4-sulfonamide] gave a melting point of 204 to 206 °C. This compound also yielded a Ki at hCA I of 0.62 µM. The affinity on hCA II corresponds to a Ki of 2.64 µM. On hCA IV, this compound returned a Ki of 7.19 µM. Also, the Ki at hCA VII was greater than 10 µM.
As for `Cc1ccc(-n2nc(C)c(S(N)(=O)=O)c2C)cc1S(N)(=O)=O` [Compound 9d, 3,5-Dimethyl-1-(4-methyl-3-sulfamoylphenyl)-^1H-pyrazole-4-sulfonamide], the Ki at hCA I, on hCA II and at hCA VII was greater than 10 µM in each case.
Consider `Cc1nn(-c2cccc(Cl)c2)c(C)c1S(N)(=O)=O` [Compound 8g, 1-(3-Chlorophenyl)-3,5-dimethyl-^1H-pyrazole-4-sulfonamide], for which the melting point lay in the range of 182 to 184 °C. On hCA I, this compound yielded an inhibitory constant (Ki) of 0.94 µM. On hCA II, this compound came in with a Ki of 1.08 µM. At hCA IV, this compound had a Ki of 9.49 µM. This compound displayed a Ki on hCA VII of 0.46 µM.
With `COc1ccc(-n2cccn2)cc1S(N)(=O)=O` [Compound 7h], the Ki at hCA I (setting [1]), on hCA II (setting [2]), on hCA IV (setting [3]) and at hCA VII (setting [4]) was greater than 10 µM throughout. Moreover, the “hCA IV inhibition, in words” value on hCA IV was “loss of hCA IV inhibition activity”.
For `NS(=O)(=O)c1cnn(-c2ccc(Cl)c(S(N)(=O)=O)c2)c1` [Compound 9n, 1-(4-Chloro-3-sulfamoylphenyl)-^1H-pyrazole-4-sulfonamide], the melting point was 232 to 235 °C. The Ki at hCA I amounted to 0.62 µM. In addition, on hCA II, the Ki came to 0.024 µM. On hCA IV, this compound had a Ki of 0.074 µM. Further, the Ki on hCA VII came out at 0.099 µM.
As to `Cc1ccc(S(N)(=O)=O)cc1-n1nc(C)c(S(N)(=O)=O)c1C` [Compound 9h, 3,5-Dimethyl-1-(2-methyl-5-sulfamoylphenyl)-^1H-pyrazole-4-sulfonamide], the melting point was in the range of 308 to 310 °C. Further, the Ki on hCA I is 0.87 µM. Moreover, the “isoform selectivity for hCA I, in words” value on hCA I (setting [5]) is given as “selective inhibitor of hCA I”. This compound came in with a Ki on hCA II greater than 10 µM. The Ki at hCA IV was greater than 10 µM. This compound returned a Ki on hCA VII greater than 10 µM.
For the compound `Cc1nn(-c2ccc(S(N)(=O)=O)c(Cl)c2)c(C)c1S(N)(=O)=O` [Compound 9o, 1-(3-Chloro-4-sulfamoylphenyl)-3,5-dimethyl-^1H-pyrazole-4-sulfonamide], the melting point lay within 198 to 201 °C. The affinity at hCA I corresponds to a Ki of 0.16 µM. For the same compound, the Ki on hCA II was determined as 0.008 µM. At hCA IV, this compound showed a Ki of 0.93 µM. Moreover, the Ki at hCA VII is 0.71 µM.
`COc1cc(-n2cccn2)ccc1S(N)(=O)=O` [Compound 7j, 2-Methoxy-4-(^1H-pyrazol-1-yl)benzenesulfonamide] came in with a melting point of 221 to 223 °C. The same compound displayed a Ki on hCA I greater than 10 µM. At hCA II, this compound showed a Ki greater than 10 µM. On hCA IV, the inhibitory constant (Ki) is greater than 10 µM. This compound registered a Ki on hCA VII of 0.387 µM. Moreover, on hCA VII (setting [5]), the “isoform selectivity for hCA VII, in words” value is “quite notable”.
Take `Cc1ccc(S(N)(=O)=O)cc1-n1cccn1` [Compound 7f]: the Ki is 1.23 µM on hCA I (setting [1]), 0.059 µM on hCA II (setting [2]), greater than 10 µM at hCA IV (setting [3]) and 0.059 µM on hCA VII (setting [4]).
With `Cc1cc(C)n(-c2ccc(S(N)(=O)=O)cc2)n1` [Compound 7o, 4-(3,5-Dimethyl-^1H-pyrazol-1-yl)benzenesulfonamide], the Ki was 0.462 µM on hCA I, 0.004 µM on hCA II, 0.084 µM at hCA IV and 0.017 µM on hCA VII.
Regarding `NS(=O)(=O)c1cnn(-c2cccc(Cl)c2)c1` [Compound 8h, (3-Chlorophenyl)-^1H-pyrazole-4-sulfonamide], the “hCA I inhibition, in words” value at hCA I is “good hCA I, II and VII inhibition activity”. For the same compound, the Ki at hCA I (setting [1]) turned out to be 0.54 µM; at hCA II (setting [2]), 0.14 µM; at hCA IV (setting [3]), 3.74 µM; on hCA VII (setting [4]), 0.24 µM. In addition, on hCA II, the “hCA II inhibition, in words” value is “good hCA I, II and VII inhibition activity”. The “hCA VII inhibition, in words” value on hCA VII is “good hCA I, II and VII inhibition activity”.

These data come from article PMC6445164, “Primary mono- and bis-sulfonamides obtained via regiospecific sulfochlorination of N-arylpyrazoles: inhibition profile against a panel of human carbonic anhydrases” (Journal of Enzyme Inhibition and Medicinal Chemistry, 2017).
